Consider 4 molecules from patent publication US20100203021A1, “PROVISION OF NEW CARDIOMYOCYTE PROGENITOR CELLS AND CARDIOMYOCYTES DERIVED THEREFROM” (LEAD PHARMA CEL MODELS IP B.V., priority 2007, published 2010).

What all share (format): cell-based, human
The test system of assay [1] is CMPC. Description: In vitro angiogenesis assay: tube formation by CMPC on Matrigel/ECMatrix. The settings on record: CMPCs on Matrigel, addition of VEGF. The source says:
We have also established differentiation of CMPCs of the invention into tubular vascular structures (angiogenesis) on Matrigel, said “tubular vascular structures” which are sometimes also denoted herein as “tubular structures” containing aligned endothelial cells encircled by smooth muscle cells. […] The formation of these newly formed capillary tubes can be visualised for example by staining α-SMA (a smooth muscle actin) on smooth muscle cells and/or PECAM-1 (platelet endothelial cell adhesion molecule-1, CD31) on endothelial cells (see also appended Example 8). Antibodies which can be used in this regard are exemplified in the following: SMA antibody: AB5694 from abcam, clone 1A4, Sigma, cat. Number: A2547, or Dako, cat. Number M08510. Endothelial cells: PECAM-1 clone 9G11 or CD34 clone Qbend/10 form Biogenex or CD31 from Sigma and ve-cadherin from Santa Cruz.
In this case the assay is set up in order to test the influence of diverse compounds (i.e. chemical compounds or miRNA etc.) on tube formation by CMPC (cardio mycocyte progenitor cells). In order for these cells to form tubes these cells have to differentiate into smooth muscle cells and endothelial cells.
The formation of these newly formed capillary tubes is visualised by staining α-SMA (α smooth muscle actin) on smooth muscle cells and PECAM-1 (platelet endothelial cell adhesion molecule-1, CD31) on endothelial cells. […]

The test system of assay [2] is hCMPCs. Kind of assay: Differentiation of hCMPCs into cardiomyocytes (5-azacytidine, ascorbic acid, TGFβ); RT-PCR, Western blot, α-actinin immunofluorescence. The method, then: For a cell type to be suitable for cardiomyocyte replacement therapies, it should not only be able to proliferate but also differentiate efficiently into cardiomyocytes. To study the capacity of the hCMPCs of the invention to differentiate into cardiomyocytes, cells were plated at 10^5 per cm^2 in differentiation medium containing ascorbic acid and treated with 5-azacytidine (which is a demethylating agent).
(§1) To determine whether CMPCs of the invention were capable of responding to TGFβ ligand we examined their ability to phosphorylate smad proteins. TGFβ exerts its effect by binding to a complex of type I and type II receptor and phosphorylating Smads^30. TGFβ phosphorylates Smad2 while BMP phosphorylates Smad1. […] To examine the effect of TGFβ on cardiomyocyte differentiation, hCMPCs were plated at 2×10^4 cells per cm^2 in differentiation medium, treated with 5-aza for 24 hours and cultured for up to 3 weeks in differentiation medium supplemented with TGFβ (1 ng/ml).
To induce differentiation, cells were treated with 5 μM 5′-azacytidine (Sigma) for 72 hours in differentiation medium (Iscove's Modified Dulbecco's Medium/HamsF12 (1:1) (Gibco)) supplemented with L-Glutamine (Gibco), 2% horse serum, non-essential amino acids, Insulin-Transferrin-Selenium supplement, and 10^−4 M Ascorbic Acid (Sigma)). After induction, the medium was changed every 3 days.
For TGFβ treatment, CMPCs were cultured in differentiation medium, stimulated with 5 μM 5′-azacytidine (Sigma) and 1 ng/ml TGFβ1 (Sigma) added 24 hours later. The medium was changed every 3 days.
RNA was isolated using of Trizol (Invitrogen, Breda, The Netherlands) and reverse transcribed using oligo-dT Superscript 3 (Invitrogen). The PCR reactions started with 2 min at 94° C. followed by 35 cycles of: 15 s at 94° C., 30 s at 55° C. and 45 s at 72° C. Products were analyzed on ethidium bromide-stained 1% agarose gel. β-tubulin or β-actin were used as RNA input control.
Coverslips with cultured cells were rinsed in serum free medium, fixed in methanol (−20° C.) or 4% paraformaldehyde, washed with PBS and permeabilized with 0.2% Triton X-100/PBS. Non-specific binding of antibodies was blocked with 2% bovine serum albumin (BSA). Incubation with primary antibodies was performed overnight in PBS/10% normal goat serum (NGS). Antibodies used recognized GATA-4 (Santa Cruz), Islets-1 (Hybridoma Bank), Cx40 (Chemicon), Cx43 (Zymed), Cx45 (kindly provided by Dr. T. H. Steinberg, Washington University, St. Louis, USA), α-actinin (Sigma), Troponin I (Chemicon) desmin (Sanbio), titin (Sigma), MLC2v (Alexis), β-MHC (kindly provided by Dr. A. F. M. Moorman, AMC Amsterdam, Netherlands), N-cadherin (Sigma) and ZO-1 (Zymed). Immunolabeling was performed using Texas Red (TR)- or fluorescein isothiocyanate (FITC)-conjugated secondary antibodies (Jackson Laboratories). All incubation steps were performed at room temperature and in between all incubation steps, cells were washed with PBS. Finally, coverslips were mounted in Vectashield (Vector Laboratories) and examined with a Nikon Optiphot-2 light microscope equipped for epifluorescence.
Western blot analysis was performed as described previously^35. Detection was by ECL (Amersham). […]

For assay [3], the system named is Smad2. Description: Western blot for TGFβ induced Smad2 phosphorylation in CMPCs. Conditions: 1 ng/ml TGFβ, Western blot α-pSmad2. The method, then: as §1
(§2) FIG. 3: (A) Western blot analysis on protein samples isolated from CMPCs stimulated without or with 1 ng/ml TGFβ or 25 ng/ml BMP-6 and probed with α-pSmad1 or α-pSmad2. Asterisk indicates an non-specific band showing equal loading. B) Semi-quantitative RT-PCR on RNA isolated from CMPCs stimulated without or with 1 ng/ml TGFβ for the indicated days probed for the expression of the early cardiac transcription factors Nkx2.5 and Mef2C, the contractile proteins cardiac actin, cardiac Troponin I, desmin, ANP and MLC2v. β-actin was used as a control for equal RNA input. C) Western blot analysis on protein samples from CMPCs stimulated without or with 1 ng/ml TGF for the indicated days, probed for Nkx2.5 or α-actinin. […] Counterstaining of nuclei was performed using DAPI. Bar=50 μm. […]

The subject of assay [4] is Smad1. Kind of assay: Western blot for BMP induced Smad1 phosphorylation in CMPCs. The settings on record: 25 ng/ml BMP-6, Western blot α-pSmad1. The method, then:
as §1, §2
For orientation: A western blot detects proteins with antibodies after separation by electrophoresis.

Turning to VEGF, the “formation of capillary tubes” value in assay [1] was “can be induced”.
Take “TGFβ: TGFβ1 (Sigma), 1 ng/ml, added to differentiation medium”: in assay [2] (CMPCs, 7 days of culture in the presence of TGFβ 1 ng/ml), the “expression of Nkx2.5 and α-actinin (Western blot)” value is given as “increased dramatically”. Besides, the “percentage of α-actinin positive cells” value in assay [2] (hCMPCs, 5-aza 24 hours, then TGFβ 1 ng/ml, immunofluorescent staining) was about 100%. Besides, the “expression of cardiac genes Troponin-I, ANP, cardiac-actin and desmin (RT-PCR)” value in assay [2] (hCMPCs, 5-aza, TGFβ 1 ng/ml, undetectable in its absence) was “already observed 7 days after the initiation of differentiation”. Further, the “MLC2v expression (RT-PCR)” value in assay [2] (hCMPCs, 5-aza, TGFβ 1 ng/ml, without TGFβ only after 3 weeks) is recorded as “already present after two weeks”. Moreover, the Smad2 phosphorylation result in assay [3] is reported as “TGFβ induced Smad2 phosphorylation”.
Turning to `Nc1ncn([C@@H]2O[C@H](CO)[C@@H](O)[C@H]2O)c(=O)n1` [5-azacytidine, reference compound], the “differentiation of hCMPCs into cardiomyocytes (beating areas)” value in assay [2] (hCMPCs 10^5 per cm^2, differentiation medium with ascorbic acid, three weeks after treatment) was “spontaneously beating areas were observed”.

B1: BMP: bone morphogenetic protein; 25 ng/ml BMP-6 in FIG. 3A (protein, UniProt P22004 375-513, looked up)
Bone morphogenetic protein 6: SASSRRRQQSRNRSTQSQDVARVSSASDYNSSELKTACRKHELYVSFQDLGWQDWIIAPKGYAANYCDGECSFPLNAHMNATNHAIVQTLVHLMNPEYVPKPCCAPTKLNAISVLYFDDNSNVILKKYRNMVVRACGCH
For B1, the Smad1 phosphorylation result in assay [4] is listed as “clear BMP induced Smad1 phosphorylation”.
